Measurements taken from PubChem BioAssay (NCI).
Several values for one entry are separate records, joined by “and”; a condition that tells them apart may be missing. Identical values can stand only once.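 Five compound concentrations were applied to cells in 96-well plates for 48 hours; endpoints were derived by simple linear interpolation of the resulting dose-response curve. Here, GI50 denotes the concentration required for 50% inhibition of growth. TGI marks complete inhibition of growth.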

What was measured:
Test in all cases: DTP human tumour cell line panel, 48 h
786-0 renal = system: 786-0 renal
SF-268 CNS = system: SF-268 CNS
RPMI-8226 leukemia = system: RPMI-8226 leukemia
RXF 393 renal = system: RXF 393 renal
HL-60(TB) leukemia = system: HL-60(TB) leukemia
U251 CNS = system: U251 CNS
SK-OV-3 ovarian = system: SK-OV-3 ovarian
UACC-62 melanoma = system: UACC-62 melanoma

| Structure (SMILES) | GI50 (786-0 renal) | TGI (786-0 renal) | GI50 (SF-268 CNS) | TGI (SF-268 CNS) | GI50 (RPMI-8226 leukemia) | TGI (RPMI-8226 leukemia) | GI50 (RXF 393 renal) | TGI (RXF 393 renal) | GI50 (HL-60(TB) leukemia) | TGI (HL-60(TB) leukemia) | GI50 (U251 CNS) | TGI (U251 CNS) | GI50 (SK-OV-3 ovarian) | TGI (SK-OV-3 ovarian) | GI50 (UACC-62 melanoma) | TGI (UACC-62 melanoma) |
| --- | --- | --- | --- | --- | --- | --- | --- | --- | --- | --- | --- | --- | --- | --- | --- | --- |
| COc1ccc(C(=O)/C=C/c2ccc(C)cc2)cc1OC | 15.4 µM | 28.7 µM | 11.7 µM | 24.4 µM | 17.5 µM | 47 µM | 12.2 µM | 26.4 µM | 23.2 µM | 62.4 µM | 4.78 µM | 17.3 µM | 14 µM | 27.4 µM |  |  |
| CC[N+](CC)=c1sc2c(s1)C(c1ccc(Cl)cc1)Oc1ccc(Cl)cc1-2 (centres undefined) | 1.92 µM | 3.76 µM | 0.461 µM | 2.08 µM | 1.99 µM | 7.5 µM | 2.26 µM | 4.86 µM | 2.22 µM | 5.98 µM | 0.374 µM | 1.37 µM | 2.51 µM | 8.72 µM | 1.65 µM | 4.14 µM |
| CCC[CH2][Sn]([CH2]CCC)([CH2]CCC)[O]c1ccc(Cl)cc1Cl | 0.135 µM | 0.266 µM | 0.128 µM | 0.301 µM |  |  | 0.142 µM | 0.296 µM | 0.129 µM | 0.415 µM | 0.146 µM | 0.297 µM | 0.137 µM | 0.276 µM | 0.162 µM | 0.357 µM |
| Oc1[nH]c2ccccc2c1N=Nc1ccccn1 |  | 29.6 µM |  | > 100 µM |  | > 100 µM |  | > 100 µM |  | 86.5 µM |  | 46.6 µM |  | 38.1 µM |  | > 100 µM |
| C#CCOc1cccc(-c2ncnc3cc(NC(=O)CCl)ccc23)c1 | 0.208 µM | 2.26 µM | 0.669 µM | 2.94 µM | 1.67 µM | 6.13 µM | 1.4 µM | 3.16 µM | 0.536 µM | 4.36 µM | 0.149 µM | 2.76 µM | 2.22 µM | 7.38 µM | 0.481 µM | 3.07 µM |
| Cc1cc(S(=O)(=O)Nc2nc3cscc3c(=O)n2Cc2ccccc2)c(S)cc1Cl | 24.3 µM | > 100 µM | 31 µM | > 100 µM | 26.7 µM | > 100 µM | 36.2 µM | > 100 µM | 44.1 µM | > 100 µM | 34.9 µM | > 100 µM |  |  | 50.5 µM | > 100 µM |
| COC(=O)CCc1c[nH]c2ccc(N(CCCl)CCCl)cc12 | 0.856 µM | > 20.7 µM | 1.25 µM | 30 µM | 3.05 µM | > 55.9 µM | 1.64 µM | 4.19 µM | 0.429 µM | > 100 µM | 1.31 µM | 25.1 µM | 1.93 µM | 33.5 µM | 1.72 µM | 16.6 µM |
| Nc1ccccc1C(=O)CC1OC(=O)c2ccccc21 (centres undefined) |  | > 100 µM |  | > 100 µM |  | > 100 µM |  |  |  | > 100 µM |  | > 100 µM |  | > 100 µM |  | > 100 µM |
| Cc1ccc(-c2csc(/N=C3\C(=O)Nc4ccccc43)n2)cc1 | 1.63 µM | 3.28 µM | 1.52 µM | 3.5 µM | 1.05 µM | 4.29 µM | 1.49 µM | 3.16 µM |  |  | 1.46 µM | 3.05 µM | 1.61 µM | 3.55 µM | 1.37 µM | 2.83 µM |
| CCc1cccc(C)c1NC(=O)c1sc2nc3c(cc2c1N)CCCCC3 | 4.58 µM | > 100 µM | 7.69 µM | > 100 µM | 4.3 µM | 25 µM | 1.6 µM | 6.4 µM | 2.85 µM | 11.8 µM | 3.62 µM | 80.9 µM | 5.24 µM | > 100 µM | 3.31 µM | > 100 µM |
| COc1cccc(-c2cc(=O)c3cc(OC)ccc3[nH]2)c1 | 0.15 µM | 65.3 µM | 0.626 µM | 24.2 µM | 0.0288 µM |  | 0.0144 µM | 0.224 µM | 0.0194 µM | 0.405 µM and 0.0536 µM | 0.057 µM | 3.36 µM and 13.2 µM |  | 41.5 µM | 0.0459 µM | > 100 µM |
| C=C1C(O)C2C(=C(CCc3ccccc3)C13CC3)C(=O)C(C)(CO)C2O (centres undefined) | > 100 µM | > 100 µM | > 100 µM | > 100 µM | 22.2 µM | 70.2 µM | > 100 µM | > 100 µM | 81.9 µM | > 100 µM | > 100 µM | > 100 µM |  |  | > 100 µM | > 100 µM |
| COC(=O)[C@@H](C)C[C@H](Cc1ccccc1)NC(=O)c1csc(CC[C@H](C(C)C)N(C)C(=O)[C@@H](NC(=O)[C@H]2CCCCN2C)C(C)C)n1 | 0.382 µM | > 30.2 µM | 0.722 µM | > 33.3 µM | 0.135 µM | > 33.3 µM |  |  | 0.0799 µM | 0.298 µM | 0.398 µM | > 33.3 µM | 0.451 µM | > 33.3 µM | 0.14 µM | > 33.3 µM |
| CCOC(=O)N1CCN(c2nc(Nc3cc(C)[nH]n3)c3ccccc3n2)CC1 | 1.95 µM | 14.2 µM | 3.54 µM | 39 µM | 3.4 µM | 13.6 µM | 1.11 µM | 5.01 µM | 12 µM | 34.1 µM | 2.13 µM | 23.5 µM | 2.62 µM | 34.3 µM |  |  |
| Clc1nc(Cl)c2ncn(Cc3cccc(Cn4cnc5c(Cl)nc(Cl)nc54)c3)c2n1 | 12.3 µM | 26.6 µM | 13 µM | 31.5 µM | 2.59 µM | 11.1 µM | 1.92 µM | 3.72 µM | 2.9 µM | 82.8 µM | 3.91 µM | 13.9 µM |  |  | 2.41 µM | 5.91 µM |
| Cc1sc2nc(-c3ccncc3)c(/C=N/N=C(N)N)n2c1C | 32.2 µM | 92.1 µM | 25.7 µM | 90.1 µM | 28 µM | 78.2 µM |  |  | 21.7 µM | > 100 µM | 30.5 µM | > 100 µM | 62.2 µM | > 100 µM | 17.3 µM | 50.3 µM |
